Legend:
Test in all cases: relative viability (nuclei count vs DMSO), 5 days (fraction); higher = more cells survive
[1] = compound: C[C@H]([C@@H](C(=O)N)NC(=O)[C@@H]1CSSC[C@@H](C(=O)N[C@H](C(=O)N[C@@H](C(=O)N[C@H](C(=O)N1)CCCCN)CC2=CNC3=CC=CC=C32)CC4=CC=C(C=C4)O)NC(=O)[C@@H](CC5=CC=CC=C5)N)O [CAP-232]
In short: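 Viability is treated-well nuclei as a fraction of vehicle-well nuclei, reported as the median across plates. Before counting, lung cancer cell lines were kept overnight at 37 °C in 1536-well plates, pinned with five √10-spaced library-drug doses on vehicle-anchored plates, and left 5 days without medium change, then fixed, permeabilised and Hoechst-stained in one step, imaged at 4× and counted by MetaXpress. A plate passed only if control CV was below 25% and at least one doubling occurred.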

[2] = compound: C[C@H]([C@@H](C(=O)N)NC(=O)[C@@H]1CSSC[C@@H](C(=O)N[C@H](C(=O)N[C@@H](C(=O)N[C@H](C(=O)N1)CCCCN)CC2=CNC3=CC=CC=C32)CC4=CC=C(C=C4)O)NC(=O)[C@@H](CC5=CC=CC=C5)N)O [CAP-232] + Cc1nc(NC(=O)N2CCC[C@H]2C(N)=O)sc1-c1ccnc(C(C)(C)C(F)(F)F)c1 [Alpelisib] (partner 2 µM)
In short: (§1)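 Relative viability was taken as the ratio of nuclei in treated wells to nuclei in vehicle wells. Lung cancer cell lines in 1536-well plates received compounds by pin tool one day after seeding, either one drug alone or a fixed anchor-drug dose plus five library-drug doses (not always all listed) in √10 steps. Nuclei were counted on 4× images after 5 days of treatment, and values are medians of duplicate plates.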

[3] = compound: C[C@H]([C@@H](C(=O)N)NC(=O)[C@@H]1CSSC[C@@H](C(=O)N[C@H](C(=O)N[C@@H](C(=O)N[C@H](C(=O)N1)CCCCN)CC2=CNC3=CC=CC=C32)CC4=CC=C(C=C4)O)NC(=O)[C@@H](CC5=CC=CC=C5)N)O [CAP-232] + CS(=O)(=O)CCNCc1ccc(-c2ccc3ncnc(Nc4ccc(OCc5cccc(F)c5)c(Cl)c4)c3c2)o1 [Lapatinib] (partner 2 µM)
In short: as §1

[4] = compound: C[C@H]([C@@H](C(=O)N)NC(=O)[C@@H]1CSSC[C@@H](C(=O)N[C@H](C(=O)N[C@@H](C(=O)N[C@H](C(=O)N1)CCCCN)CC2=CNC3=CC=CC=C32)CC4=CC=C(C=C4)O)NC(=O)[C@@H](CC5=CC=CC=C5)N)O [CAP-232] + CC1(C)CCC(c2ccc(Cl)cc2)=C(CN2CCN(c3ccc(C(=O)NS(=O)(=O)c4ccc(N[C@H](CCN5CCOCC5)CSc5ccccc5)c(S(=O)(=O)C(F)(F)F)c4)cc3)CC2)C1 [Navitoclax] (partner 0.5 µM)
In short: as §1

[5] = compound: C[C@H]([C@@H](C(=O)N)NC(=O)[C@@H]1CSSC[C@@H](C(=O)N[C@H](C(=O)N[C@@H](C(=O)N[C@H](C(=O)N1)CCCCN)CC2=CNC3=CC=CC=C32)CC4=CC=C(C=C4)O)NC(=O)[C@@H](CC5=CC=CC=C5)N)O [CAP-232] + COc1cc2c(Oc3ccc(NC(=O)C4(C(=O)Nc5ccc(F)cc5)CC4)cc3F)ccnc2cc1OCCCN1CCOCC1 [Foretinib] (partner 0.25 µM)
In short: as §1

[6] = compound: C[C@H]([C@@H](C(=O)N)NC(=O)[C@@H]1CSSC[C@@H](C(=O)N[C@H](C(=O)N[C@@H](C(=O)N[C@H](C(=O)N1)CCCCN)CC2=CNC3=CC=CC=C32)CC4=CC=C(C=C4)O)NC(=O)[C@@H](CC5=CC=CC=C5)N)O [CAP-232] + CC(C)C[C@H](NC(=O)[C@H](Cc1ccccc1)NC(=O)c1cnccn1)B(O)O [Bortezomib] (partner 0.002 µM)
In short: as §1

[7] = compound: C[C@H]([C@@H](C(=O)N)NC(=O)[C@@H]1CSSC[C@@H](C(=O)N[C@H](C(=O)N[C@@H](C(=O)N[C@H](C(=O)N1)CCCCN)CC2=CNC3=CC=CC=C32)CC4=CC=C(C=C4)O)NC(=O)[C@@H](CC5=CC=CC=C5)N)O [CAP-232] + C[C@]1(O)C[C@@H](c2nc(-c3ccc4ccc(-c5ccccc5)nc4c3)c3c(N)nccn32)C1 [Linsitinib] (partner 1 µM)
In short: as §1

[8] = compound: C[C@H]([C@@H](C(=O)N)NC(=O)[C@@H]1CSSC[C@@H](C(=O)N[C@H](C(=O)N[C@@H](C(=O)N[C@H](C(=O)N1)CCCCN)CC2=CNC3=CC=CC=C32)CC4=CC=C(C=C4)O)NC(=O)[C@@H](CC5=CC=CC=C5)N)O [CAP-232] + CS(=O)(=O)N1CCN(Cc2cc3nc(-c4cccc5[nH]ncc45)nc(N4CCOCC4)c3s2)CC1 [Pictilisib] (partner 1 µM)
In short: as §1

[9] = compound: C[C@H]([C@@H](C(=O)N)NC(=O)[C@@H]1CSSC[C@@H](C(=O)N[C@H](C(=O)N[C@@H](C(=O)N[C@H](C(=O)N1)CCCCN)CC2=CNC3=CC=CC=C32)CC4=CC=C(C=C4)O)NC(=O)[C@@H](CC5=CC=CC=C5)N)O [CAP-232] + O=C(c1cc(Cc2n[nH]c(=O)c3ccccc23)ccc1F)N1CCN(C(=O)C2CC2)CC1 [Olaparib] (partner 8 µM)
In short: as §1

[10] = compound: C[C@H]([C@@H](C(=O)N)NC(=O)[C@@H]1CSSC[C@@H](C(=O)N[C@H](C(=O)N[C@@H](C(=O)N[C@H](C(=O)N1)CCCCN)CC2=CNC3=CC=CC=C32)CC4=CC=C(C=C4)O)NC(=O)[C@@H](CC5=CC=CC=C5)N)O [CAP-232] + C[C@@H](Oc1cc(-c2cnn(C3CCNCC3)c2)cnc1N)c1c(Cl)ccc(F)c1Cl [Crizotinib] (partner 1 µM)
In short: as §1

Cell Line | relative viability ([1]; 0.4 µM) | relative viability ([1]; 1.265 µM) | relative viability ([1]; 4 µM) | relative viability ([1]; 12.65 µM) | relative viability ([2]; first compound 0.4 µM) | relative viability ([2]; first compound 1.265 µM) | relative viability ([2]; first compound 4 µM) | relative viability ([2]; first compound 12.65 µM) | relative viability ([3]; first compound 0.4 µM) | relative viability ([3]; first compound 1.265 µM) | relative viability ([3]; first compound 4 µM) | relative viability ([3]; first compound 12.65 µM) | relative viability ([4]; first compound 0.4 µM) | relative viability ([4]; first compound 1.265 µM) | relative viability ([4]; first compound 4 µM) | relative viability ([4]; first compound 12.65 µM) | relative viability ([5]; first compound 0.4 µM) | relative viability ([5]; first compound 1.265 µM) | relative viability ([5]; first compound 4 µM) | relative viability ([5]; first compound 12.65 µM) | relative viability ([6]; first compound 0.4 µM) | relative viability ([6]; first compound 1.265 µM) | relative viability ([6]; first compound 4 µM) | relative viability ([6]; first compound 12.65 µM) | relative viability ([7]; first compound 0.4 µM) | relative viability ([7]; first compound 1.265 µM) | relative viability ([7]; first compound 4 µM) | relative viability ([7]; first compound 12.65 µM) | relative viability ([8]; first compound 0.4 µM) | relative viability ([8]; first compound 1.265 µM) | relative viability ([8]; first compound 4 µM) | relative viability ([8]; first compound 12.65 µM) | relative viability ([9]; first compound 0.4 µM) | relative viability ([9]; first compound 1.265 µM) | relative viability ([9]; first compound 4 µM) | relative viability ([9]; first compound 12.65 µM) | relative viability ([10]; first compound 0.4 µM) | relative viability ([10]; first compound 1.265 µM) | relative viability ([10]; first compound 4 µM) | relative viability ([10]; first compound 12.65 µM)
Calu-6 | 1.12 | 1.02 | 1.15 | 0.74 | 1.09 | 1.08 | 1 | 0.654 | 1.26 | 1.03 | 1.15 | 0.664 | 0.963 | 0.941 | 0.831 | 0.446 | 0.867 | 1.02 | 0.995 | 0.561 | 1.16 | 1.04 | 0.947 | 0.653 | 1.05 | 1.01 | 0.929 | 0.988 | 0.956 | 0.889 | 0.945 | 0.585 | 0.616 | 0.542 | 0.623 | 0.394 | 0.961 | 0.842 | 0.988 | 0.555
EBC-1 | 1.05 | 0.974 | 1.13 | 0.927 | 0.876 | 0.819 | 0.846 | 0.76 | 0.181 | 0.228 | 0.194 | 0.159 | 0.315 | 0.328 | 0.363 | 0.304 | 0.0884 | 0.129 | 0.101 | 0.0802 | 0.512 | 0.497 | 0.567 | 0.475 | 1.04 | 0.944 | 0.904 | 0.926 | 0.363 | 0.314 | 0.391 | 0.286 | 0.773 | 0.686 | 0.698 | 0.662 | 0.194 | 0.169 | 0.178 | 0.11

— the supplement of paper PMC10307832
